Reference: article PMC12298351, “Novel 3,19-(N-Phenyl-3-(4-fluorophenyl)-pyrazole) Acetal of Andrographolide Promotes Cell Cycle Arrest and Apoptosis in MDA-MB-231 Breast Cancer Cells” (Pharmaceuticals, 2025)

Experiments:
[1] = system: LOX IMVI
[2] = system: RXF 393; conditions: RXF 393, Renal
[3] = system: SR
[4] = system: SK-OV-3; conditions: SK-OV-3, Ovarian
[5] = system: HCT-15; conditions: HCT-15, Colon
[6] = system: HT29; conditions: HT29, Colon
[7] = system: IGROV1; conditions: IGROV1, Ovarian
[8] = system: OVCAR-4; type: cell-based; conditions: OVCAR-4, Ovarian
[9] = system: MDA-MB-468; conditions: MDA-MB-468, Breast
[10] = system: NCI-H226
[11] = system: OVCAR-5; conditions: OVCAR-5, Ovarian
[12] = system: DU-145; conditions: DU-145, Prostate
[13] = system: NCI/ADR-RES
[14] = system: HOP-62
[15] = system: HCC-2998; conditions: HCC-2998, Colon
[16] = system: OVCAR-3; conditions: OVCAR-3, Ovarian
[17] = system: A498; conditions: A498, Renal
[18] = system: CAKI-1; conditions: CAKI-1, Renal
[19] = system: SK-MEL-2; conditions: SK-MEL-2, Melanoma
[20] = system: EKVX
[21] = system: HOP-92
[22] = system: CCRF-CEM
[23] = system: BT-549; type: cell-based; conditions: BT-549, Breast
[24] = system: NCI-H460
[25] = system: NCI-H522
[26] = system: NCI-H23
[27] = system: A549/ATCC
[28] = system: HS 578T
[29] = system: UACC-257; conditions: UACC-257, Melanoma
[30] = system: UACC-62; conditions: UACC-62, Melanoma
[31] = system: MDA-MB-435; conditions: MDA-MB-435, Melanoma
[32] = read-out: 50% lethal concentration (LC50)
[33] = read-out: 50% lethal concentration (LC50), Leukemia
[34] = read-out: 50% lethal concentration (LC50), Non-Small Cell Lung

For `C=C1CCC2C3(C)COC(c4cn(-c5ccccc5)nc4-c4ccc(F)cc4)OC3CCC2(C)C1CC=C1C(=O)OCC1O` (stereo not drawn) [1f, 3,19-(N-Phenyl-3-(4-fluorophenyl)-pyrazole) Acetal of Andrographolide], the GI50 ([1]; Melanoma) was 1.32 µM, the Total growth inhibition (TGI) ([1]; Melanoma) was 2.59 µM and the CC50 ([1]; read-out: 50% lethal concentration (LC50), Melanoma) was 5.09 µM. The GI50 [2] was 1.6 µM, the Total growth inhibition (TGI) [2] was 3.04 µM and the CC50 [2, 32] was 5.78 µM. The GI50 ([3]; Leukemia) was 1.7 µM, the Total growth inhibition (TGI) ([3]; Leukemia) was 7.33 µM and the CC50 [3, 33] was greater than 100 µM. It also gave a GI50 [4] of 1.88 µM, a Total growth inhibition (TGI) [4] of 5.48 µM and a CC50 [4, 32] of 30.7 µM. It also gave a GI50 [5] of 1.61 µM, a Total growth inhibition (TGI) [5] of 3.18 µM and a CC50 [5, 32] of 6.28 µM. For the same compound, the GI50 [6] was 2.38 µM, the Total growth inhibition (TGI) [6] was 7.63 µM and the CC50 [6, 32] was 93.9 µM. It also gave a GI50 [7] of 1.84 µM, a Total growth inhibition (TGI) [7] of 4.75 µM and a CC50 [7, 32] greater than 100 µM. It also gave a GI50 [8] of 1.75 µM, a Total growth inhibition (TGI) [8] of 4.08 µM and a GI50 [9] of 1.53 µM. For the same compound, the Total growth inhibition (TGI) [9] was 2.96 µM, the CC50 [9, 32] was 5.71 µM and the Total growth inhibition (TGI) ([10]; NCI-H226, Non-Small Cell Lung) was 2.94 µM. The GI50 ([10]; NCI-H226, Non-Small-Cell Lung) was 1.51 µM, the CC50 ([10]; read-out: 50% lethal concentration (LC50), NCI-H226, Non-Small Cell Lung) was 5.75 µM and the GI50 [11] was 1.74 µM. It also gave a Total growth inhibition (TGI) [11] of 3.88 µM, a CC50 [11, 32] of 8.66 µM and a GI50 [12] of 1.82 µM. For the same compound, the Total growth inhibition (TGI) [12] was 3.44 µM, the CC50 [12, 32] was 6.52 µM and the GI50 ([13]; Ovarian) was 1.54 µM. For the same compound, the Total growth inhibition (TGI) ([13]; Ovarian) was 3.57 µM, the CC50 ([13]; read-out: 50% lethal concentration (LC50), Ovarian) was 8.29 µM and the Total growth inhibition (TGI) ([14]; HOP-62, Non-Small Cell Lung) was 3.36 µM. For the same compound, the GI50 ([14]; HOP-62, Non-Small-Cell Lung) was 1.62 µM, the CC50 ([14]; read-out: 50% lethal concentration (LC50), HOP-62, Non-Small Cell Lung) was 6.95 µM and the GI50 [15] was 1.76 µM. It also gave a Total growth inhibition (TGI) [15] of 3.21 µM, a GI50 [16] of 2.02 µM and a Total growth inhibition (TGI) [16] of 3.71 µM. The CC50 [16, 32] was 6.79 µM, the GI50 [17] was 3.31 µM and the Total growth inhibition (TGI) [17] was 11.5 µM. For the same compound, the CC50 [17, 32] was 38.3 µM, the GI50 [18] was 1.58 µM and the Total growth inhibition (TGI) [18] was 3.17 µM. For the same compound, the CC50 [18, 32] was 6.34 µM, the GI50 [19] was 1.69 µM and the Total growth inhibition (TGI) [19] was 3.1 µM. It also gave a Total growth inhibition (TGI) ([20]; Non-Small Cell Lung) of 4.72 µM, a GI50 ([20]; Non-Small-Cell Lung) of 2.06 µM and a CC50 [20, 34] greater than 100 µM. For the same compound, the Total growth inhibition (TGI) ([21]; HOP-92, Non-Small Cell Lung) was 2.73 µM, the GI50 ([21]; HOP-92, Non-Small-Cell Lung) was 1.29 µM and the CC50 ([21]; read-out: 50% lethal concentration (LC50), HOP-92, Non-Small Cell Lung) was 5.78 µM. It also gave a GI50 ([22]; Leukemia) of 0.4 µM, a CC50 [22, 33] greater than 100 µM and a GI50 [23] of 1.31 µM. It also gave a Total growth inhibition (TGI) [23] of 3.18 µM, a Total growth inhibition (TGI) ([24]; NCI-H460, Non-Small Cell Lung) of 3.33 µM and a GI50 ([24]; NCI-H460, Non-Small-Cell Lung) of 1.69 µM. It also gave a CC50 ([24]; read-out: 50% lethal concentration (LC50), NCI-H460, Non-Small Cell Lung) of 6.57 µM, a Total growth inhibition (TGI) ([25]; NCI-H522, Non-Small Cell Lung) of 3.82 µM and a GI50 ([25]; NCI-H522, Non-Small-Cell Lung) of 1.95 µM. The CC50 ([25]; read-out: 50% lethal concentration (LC50), NCI-H522, Non-Small Cell Lung) was 7.48 µM, the Total growth inhibition (TGI) ([26]; NCI-H23, Non-Small Cell Lung) was 3.32 µM and the GI50 ([26]; NCI-H23, Non-Small-Cell Lung) was 1.7 µM. The CC50 ([26]; read-out: 50% lethal concentration (LC50), NCI-H23, Non-Small Cell Lung) was 6.46 µM, the Total growth inhibition (TGI) ([27]; Non-Small Cell Lung) was 5.92 µM and the GI50 ([27]; Non-Small-Cell Lung) was 2.14 µM. It also gave a CC50 [27, 34] of 51.5 µM, a GI50 ([28]; Breast) of 1.51 µM and a Total growth inhibition (TGI) ([28]; Breast) of 2.94 µM. For the same compound, the CC50 ([28]; read-out: 50% lethal concentration (LC50), Breast) was 5.72 µM, the GI50 [29] was 1.65 µM and the Total growth inhibition (TGI) [29] was 3.18 µM. The GI50 [30] was 1.58 µM, the Total growth inhibition (TGI) [30] was 3.09 µM and the CC50 [30, 32] was 6.05 µM. It also gave a GI50 [31] of 1.68 µM, a Total growth inhibition (TGI) [31] of 3.27 µM and a CC50 [31, 32] of 6.38 µM.
